The values that follow come from PMC8213057, “Targeting ALK2: An Open Science Approach to Developing Therapeutics for the Treatment of Diffuse Intrinsic Pontine Glioma” (Journal of Medicinal Chemistry, 2020).

For one series, the target named is T1, CYP2C9 (Homo sapiens, UniProt P11712).
T1 construct: tissue Corning 452117; host or cells: pooled human liver microsomes (UltraPool HLM 150, mixed gender)
The series can be described thus: CYP inhibition assay. The settings on record: human liver microsomes. It counts as in vitro ADME.

The target in another series is CDC7/DBF4 (Homo sapiens, UniProt O00311). Put plainly: biochemical. The following applies: read-out: % enzyme activity, 1 μM; Run 1, Run 2.
A further series has as its target CDK2/cyclin E2 (Homo sapiens, UniProt P24941). The series can be described thus: biochemical. The settings on record: read-out: % enzyme activity, 1 μM; Run 1, Run 2.
For a further series, the target named is T2, JAK3 (Homo sapiens, UniProt P52333).
T2 sequence (P52333 1-1124): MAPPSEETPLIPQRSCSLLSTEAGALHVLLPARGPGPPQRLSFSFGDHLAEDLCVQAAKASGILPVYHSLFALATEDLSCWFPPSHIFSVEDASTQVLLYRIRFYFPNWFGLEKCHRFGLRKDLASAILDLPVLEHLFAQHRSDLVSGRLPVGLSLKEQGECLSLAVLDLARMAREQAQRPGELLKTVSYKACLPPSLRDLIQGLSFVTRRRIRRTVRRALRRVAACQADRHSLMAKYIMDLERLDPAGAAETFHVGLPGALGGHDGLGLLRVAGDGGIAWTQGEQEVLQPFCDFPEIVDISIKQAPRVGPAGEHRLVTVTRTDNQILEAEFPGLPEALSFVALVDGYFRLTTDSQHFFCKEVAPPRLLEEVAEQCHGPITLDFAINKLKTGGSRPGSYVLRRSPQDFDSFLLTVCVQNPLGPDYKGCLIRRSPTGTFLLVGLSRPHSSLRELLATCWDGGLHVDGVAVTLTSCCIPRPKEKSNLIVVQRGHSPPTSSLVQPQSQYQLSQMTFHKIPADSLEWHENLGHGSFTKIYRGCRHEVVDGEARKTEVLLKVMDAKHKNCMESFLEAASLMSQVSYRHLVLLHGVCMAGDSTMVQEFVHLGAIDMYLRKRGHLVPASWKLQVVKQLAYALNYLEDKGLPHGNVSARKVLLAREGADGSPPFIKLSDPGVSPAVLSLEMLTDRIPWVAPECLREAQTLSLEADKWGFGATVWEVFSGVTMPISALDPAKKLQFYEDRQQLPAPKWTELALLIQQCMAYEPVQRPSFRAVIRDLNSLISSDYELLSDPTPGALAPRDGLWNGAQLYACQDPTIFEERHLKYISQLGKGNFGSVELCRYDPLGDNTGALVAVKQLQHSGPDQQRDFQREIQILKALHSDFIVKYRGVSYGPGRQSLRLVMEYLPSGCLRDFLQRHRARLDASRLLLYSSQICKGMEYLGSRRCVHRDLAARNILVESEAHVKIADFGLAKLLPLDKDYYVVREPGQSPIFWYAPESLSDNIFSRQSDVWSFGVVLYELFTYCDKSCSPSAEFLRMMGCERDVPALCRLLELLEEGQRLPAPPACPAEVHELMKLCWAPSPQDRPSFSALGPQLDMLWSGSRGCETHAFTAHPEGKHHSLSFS
Put plainly: biochemical. The following applies: read-out: % enzyme activity, 1 μM; Run 1, Run 2.

The next series concerns the target T3, MUSK (Homo sapiens, UniProt O15146).
T3 sequence (O15146 24-869): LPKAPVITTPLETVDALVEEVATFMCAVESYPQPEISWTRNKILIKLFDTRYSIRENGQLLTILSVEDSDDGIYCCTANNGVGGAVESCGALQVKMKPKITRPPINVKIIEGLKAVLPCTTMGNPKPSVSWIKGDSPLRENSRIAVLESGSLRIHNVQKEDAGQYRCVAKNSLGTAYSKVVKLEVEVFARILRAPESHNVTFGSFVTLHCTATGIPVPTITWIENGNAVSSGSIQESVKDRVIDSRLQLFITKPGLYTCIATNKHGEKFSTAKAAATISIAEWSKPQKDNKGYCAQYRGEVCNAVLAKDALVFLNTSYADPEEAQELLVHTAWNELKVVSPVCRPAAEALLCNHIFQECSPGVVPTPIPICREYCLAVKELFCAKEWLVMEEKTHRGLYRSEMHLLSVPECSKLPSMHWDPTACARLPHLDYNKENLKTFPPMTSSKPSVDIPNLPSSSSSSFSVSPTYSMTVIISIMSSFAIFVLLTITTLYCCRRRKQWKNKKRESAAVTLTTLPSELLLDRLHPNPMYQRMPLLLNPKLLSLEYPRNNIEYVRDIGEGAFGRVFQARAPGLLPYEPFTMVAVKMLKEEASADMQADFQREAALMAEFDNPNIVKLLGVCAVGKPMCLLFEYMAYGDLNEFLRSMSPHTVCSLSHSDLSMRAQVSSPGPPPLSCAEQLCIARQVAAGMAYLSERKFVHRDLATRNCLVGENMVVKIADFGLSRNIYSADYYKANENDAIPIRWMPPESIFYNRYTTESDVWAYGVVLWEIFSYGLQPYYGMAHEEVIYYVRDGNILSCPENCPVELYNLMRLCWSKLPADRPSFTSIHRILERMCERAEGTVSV
Put plainly: biochemical. The settings on record: read-out: % enzyme activity, 1 μM; Run 1, Run 2.

Another series addresses PAK1 (Homo sapiens, UniProt Q13153). The series can be described thus: biochemical. The following applies: read-out: % enzyme activity, 1 μM; Run 1, Run 2.

pIC50: −log10 of the molar value. Where only a bound is given, the exact number is not on record here.

T1 sequence (P11712 whole entry): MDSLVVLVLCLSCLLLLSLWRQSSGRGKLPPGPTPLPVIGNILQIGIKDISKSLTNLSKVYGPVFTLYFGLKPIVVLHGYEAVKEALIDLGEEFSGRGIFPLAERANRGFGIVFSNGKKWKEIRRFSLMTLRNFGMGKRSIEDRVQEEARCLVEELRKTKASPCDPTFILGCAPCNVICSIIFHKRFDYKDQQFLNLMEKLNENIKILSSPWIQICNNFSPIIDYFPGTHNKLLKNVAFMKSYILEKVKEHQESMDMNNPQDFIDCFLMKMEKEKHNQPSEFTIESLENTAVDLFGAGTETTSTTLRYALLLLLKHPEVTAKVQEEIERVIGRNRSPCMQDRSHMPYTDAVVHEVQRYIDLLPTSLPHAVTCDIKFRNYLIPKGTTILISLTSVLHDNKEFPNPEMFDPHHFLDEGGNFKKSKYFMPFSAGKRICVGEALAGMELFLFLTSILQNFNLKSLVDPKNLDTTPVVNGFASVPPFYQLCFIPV
Sequence of PAK1 (Q13153 whole entry): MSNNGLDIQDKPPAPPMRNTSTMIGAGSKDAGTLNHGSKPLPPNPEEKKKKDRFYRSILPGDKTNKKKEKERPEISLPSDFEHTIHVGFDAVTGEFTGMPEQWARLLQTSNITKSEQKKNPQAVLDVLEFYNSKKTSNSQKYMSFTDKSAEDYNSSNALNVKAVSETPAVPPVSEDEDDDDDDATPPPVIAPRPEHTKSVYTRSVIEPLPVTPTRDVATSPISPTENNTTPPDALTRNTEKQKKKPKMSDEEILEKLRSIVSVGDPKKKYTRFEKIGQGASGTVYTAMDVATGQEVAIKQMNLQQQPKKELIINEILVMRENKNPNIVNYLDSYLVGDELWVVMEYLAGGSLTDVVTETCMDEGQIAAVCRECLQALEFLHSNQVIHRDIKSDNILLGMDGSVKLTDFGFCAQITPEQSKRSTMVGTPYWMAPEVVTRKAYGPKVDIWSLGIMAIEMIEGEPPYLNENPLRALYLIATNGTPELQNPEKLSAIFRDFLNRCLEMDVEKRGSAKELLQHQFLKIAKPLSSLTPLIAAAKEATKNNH
Sequence of CDC7/DBF4 (O00311 whole entry): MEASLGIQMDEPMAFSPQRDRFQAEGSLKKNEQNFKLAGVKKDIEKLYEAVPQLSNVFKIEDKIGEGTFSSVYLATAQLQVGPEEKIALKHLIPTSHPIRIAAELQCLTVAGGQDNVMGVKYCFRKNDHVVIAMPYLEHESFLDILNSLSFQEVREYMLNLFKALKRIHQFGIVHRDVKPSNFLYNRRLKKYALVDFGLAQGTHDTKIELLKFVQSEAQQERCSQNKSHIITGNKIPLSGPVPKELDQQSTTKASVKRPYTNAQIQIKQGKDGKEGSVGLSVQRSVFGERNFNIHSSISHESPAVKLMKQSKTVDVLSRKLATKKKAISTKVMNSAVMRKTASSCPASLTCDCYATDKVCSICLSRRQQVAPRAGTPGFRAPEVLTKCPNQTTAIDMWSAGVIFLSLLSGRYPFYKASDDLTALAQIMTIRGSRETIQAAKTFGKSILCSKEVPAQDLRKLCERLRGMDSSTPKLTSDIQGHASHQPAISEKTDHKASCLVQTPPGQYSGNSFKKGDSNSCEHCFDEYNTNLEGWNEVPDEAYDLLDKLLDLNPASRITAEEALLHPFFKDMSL
Sequence of CDC7/DBF4 (Q9UBU7 whole entry partner): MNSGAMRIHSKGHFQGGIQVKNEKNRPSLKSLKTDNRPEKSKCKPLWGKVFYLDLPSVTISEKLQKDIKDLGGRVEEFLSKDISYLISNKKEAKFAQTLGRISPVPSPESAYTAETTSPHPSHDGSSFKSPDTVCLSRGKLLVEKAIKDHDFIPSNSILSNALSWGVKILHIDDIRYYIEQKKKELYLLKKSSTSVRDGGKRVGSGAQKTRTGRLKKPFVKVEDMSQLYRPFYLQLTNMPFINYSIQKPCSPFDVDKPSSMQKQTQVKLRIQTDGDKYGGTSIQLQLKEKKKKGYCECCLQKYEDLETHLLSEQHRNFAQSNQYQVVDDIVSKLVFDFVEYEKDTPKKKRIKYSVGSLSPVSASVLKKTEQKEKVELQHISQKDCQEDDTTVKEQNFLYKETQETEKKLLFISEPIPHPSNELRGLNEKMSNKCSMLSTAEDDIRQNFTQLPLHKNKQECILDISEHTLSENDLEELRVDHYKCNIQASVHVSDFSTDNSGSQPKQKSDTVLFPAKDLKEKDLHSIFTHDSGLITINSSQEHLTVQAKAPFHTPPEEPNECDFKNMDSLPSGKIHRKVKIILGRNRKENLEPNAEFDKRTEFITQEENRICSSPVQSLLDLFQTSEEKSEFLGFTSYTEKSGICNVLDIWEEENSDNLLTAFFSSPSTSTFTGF

The term pIC50 denotes the negative decadic logarithm of the IC50, by convention in mol/L. For `COc1cc(-c2cncc(-c3ccc(N4C[C@@H](C)N(C)[C@@H](C)C4)cc3)c2C)cc(F)c1C(N)=O` [Compound 26c, 2-Fluoro-6-methoxy-4-(4-methyl-5-(4-((3R,5S)-3,4,5-trimethylpiperazin-1-yl)phenyl)pyridin-3-yl)benzamide], the pIC50 on CYP2C9 was below 4.30. Further, the remaining activity at 1 µM is 94.2% at CDC7/DBF4; 95% at CDK2/cyclin E2; 101% on JAK3; 92.2% at MUSK; 103% on PAK1.

Regarding `COc1cc(-c2cncc(-c3ccc(N4CCN(C)CC4)cc3)c2C)cc(F)c1C(N)=O` [Compound 26a, 2-Fluoro-6-methoxy-4-(4-methyl-5-(4-(4-methylpiperazin-1-yl)phenyl)pyridin-3-yl)benzamide], the pIC50 on CYP2C9 is below 4.30. Also, the remaining activity at 1 µM at CDC7/DBF4 came to 92.2%; on CDK2/cyclin E2 it was 108%; on JAK3, 106%; at MUSK it was 92.8%; on PAK1 it was 105%.
